The values below come from US11639343B2, “Compounds targeting and degrading BCR-ABL protein and its antitumor application” (ShanghaiTech University, priority 2019, dated 2023).

The test system of one assay is K562 (BCR-ABL+) cells. Briefly: CCK-8 proliferation inhibition, K562 cells.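 Also: Ten-point threefold dilution series starting at 10 µM, absorbance at 450 nm after 2 h with CCK-8, DMSO as negative control.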 The class given is cell-based, human. The conditions noted are these: Homo sapiens, K562, 48 h, CCK-8, 48 hours of drug treatment; read-out: Proliferative inhibitory activity (IC50, nM) K562 (BCR-ABL+).
Another assay deals with U937 (BCR-ABL-) cells. Briefly: CCK-8 proliferation inhibition, U937 cells.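 Also: Ten-point threefold dilution series, absorbance at 450 nm after 2 h with CCK-8 reagent, DMSO as negative control.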 To be noted: Homo sapiens, U-937; CCK-8, 48 hours of drug treatment, highest concentration 10 μM; read-out: Proliferative inhibitory activity (IC50, nM) U937 (BCR-ABL-). The format is cell-based, human.
The next assay has as its system HEK293 (BCR-ABL-) cells. Briefly: CCK-8 proliferation inhibition, HEK293 cells.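 Also: Ten-point threefold dilution series starting at 10 µM, CCK-8 absorbance at 450 nm read after 2 h reagent incubation, DMSO-treated cells as negative control.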 To be noted: Homo sapiens, HEK293, 48 h, read-out: Proliferative inhibitory activity (IC50, nM) HEK293 (BCR-ABL-).
The next assay concerns the target c-ABL protein (Homo sapiens, UniProt P00519). The experiment in a line: Western blot degradation of c-ABL in K562 cells. Also on record: Western blot was used to detect the expression of BCR-ABL and c-ABL protein in K562 cells; endogenous in cells; host or cells: K562. The format is cell-based. The conditions noted are these: 16 hours, 1 nM-10 μM. The procedure: (§1) (1) Cell seed: K562 cells were added to the 24 well plates, with a cell density of 3×10^5/ml and a total volume of 1.5 ml; Five concentration gradients, 1 nm, 10 nm, 100 nm, 1 μM, and 10 μM, were respectively set for PROTAD series compounds and comparative examples compounds (Dasa-6-2-2-6-VHL, Dasa-6-2-6-CRBN). […] After 16 hours of drug treatment, the cells were collected in 1.5 ml ep tube, centrifuged at 3000 rpm for 3 minutes, and then added 30 μL PBS and 30 ul 2×SDS to cell precipitated, lysate Heat at 100° C. for 5 minutes, then place on ice for 5 minutes, centrifuged at 10000 rpm for 5 minutes, and take the supernatant as the total protein extracted. The protein concentration was determined by the Bradford method. After each sample was at the same concentration, bromophenol blue was added as the sample indicator.
(§2) (2) Electrophoresis: the starting voltage of the BioRad electrophoresis instrument was 80V, and as the dye enters the separation gel, the voltage was adjusted to 120V;
(§3) (3) Film transfer: prepare filter paper and nitrocellulose membrane with the corresponding size of the gel, filter paper, and NC film were soaked in transfer electrophoresis buffer.
(§4) DC50 (concentration required to degrade protein by half) were calculated based on the intensity from western blot, and data were analyzed via Prism GraphPad with non-linear regression.
In general terms: In western blotting, separated proteins are transferred to a membrane and probed.

The target of a further assay is BCR-ABL protein (Homo sapiens, UniProt P00519). The experiment in a line: Western blot degradation of BCR-ABL in K562 cells. The class given is cell-based. To be noted: 16 hours; for DC50: 1 nM-10 μM. Also on record: Western blot was used to detect the expression of BCR-ABL and c-ABL protein in K562 cells; BCR (fusion partner, P11274); endogenous in cells; host or cells: K562; the other entry of the earlier key: BCR (P11274, Breakpoint cluster region protein). As for the experimental part:
as §1, §2, §3, §4

c-ABL protein, sequence (P00519 whole entry): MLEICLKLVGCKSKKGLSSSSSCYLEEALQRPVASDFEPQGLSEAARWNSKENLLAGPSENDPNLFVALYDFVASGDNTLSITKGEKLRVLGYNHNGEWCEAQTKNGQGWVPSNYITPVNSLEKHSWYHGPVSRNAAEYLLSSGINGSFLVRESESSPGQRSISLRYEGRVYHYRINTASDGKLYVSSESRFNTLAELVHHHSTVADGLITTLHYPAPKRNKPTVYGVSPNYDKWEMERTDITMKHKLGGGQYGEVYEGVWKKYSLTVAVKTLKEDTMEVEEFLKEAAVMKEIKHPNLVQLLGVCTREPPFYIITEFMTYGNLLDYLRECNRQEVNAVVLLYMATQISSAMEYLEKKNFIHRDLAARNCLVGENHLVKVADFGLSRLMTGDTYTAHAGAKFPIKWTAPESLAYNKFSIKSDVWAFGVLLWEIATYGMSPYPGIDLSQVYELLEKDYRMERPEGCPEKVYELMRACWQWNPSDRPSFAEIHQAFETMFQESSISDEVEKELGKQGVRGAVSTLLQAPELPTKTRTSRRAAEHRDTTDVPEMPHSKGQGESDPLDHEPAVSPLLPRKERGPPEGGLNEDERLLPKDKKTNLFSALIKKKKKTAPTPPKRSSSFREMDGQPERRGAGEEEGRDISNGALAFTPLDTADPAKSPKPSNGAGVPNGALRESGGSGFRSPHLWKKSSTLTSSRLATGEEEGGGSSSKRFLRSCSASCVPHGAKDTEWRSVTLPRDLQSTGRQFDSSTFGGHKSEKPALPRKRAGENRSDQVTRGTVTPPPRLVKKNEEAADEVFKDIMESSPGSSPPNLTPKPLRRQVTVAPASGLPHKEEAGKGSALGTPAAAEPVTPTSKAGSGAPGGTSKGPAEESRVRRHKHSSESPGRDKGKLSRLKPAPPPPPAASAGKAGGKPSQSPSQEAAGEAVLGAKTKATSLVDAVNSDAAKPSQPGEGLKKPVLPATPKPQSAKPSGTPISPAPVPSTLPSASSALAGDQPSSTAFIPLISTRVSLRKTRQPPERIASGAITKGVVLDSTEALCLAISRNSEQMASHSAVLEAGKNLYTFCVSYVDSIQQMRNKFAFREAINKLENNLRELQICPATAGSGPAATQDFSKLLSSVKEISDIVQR
BCR-ABL protein, sequence (P00519 with tags, fused parts or gaps): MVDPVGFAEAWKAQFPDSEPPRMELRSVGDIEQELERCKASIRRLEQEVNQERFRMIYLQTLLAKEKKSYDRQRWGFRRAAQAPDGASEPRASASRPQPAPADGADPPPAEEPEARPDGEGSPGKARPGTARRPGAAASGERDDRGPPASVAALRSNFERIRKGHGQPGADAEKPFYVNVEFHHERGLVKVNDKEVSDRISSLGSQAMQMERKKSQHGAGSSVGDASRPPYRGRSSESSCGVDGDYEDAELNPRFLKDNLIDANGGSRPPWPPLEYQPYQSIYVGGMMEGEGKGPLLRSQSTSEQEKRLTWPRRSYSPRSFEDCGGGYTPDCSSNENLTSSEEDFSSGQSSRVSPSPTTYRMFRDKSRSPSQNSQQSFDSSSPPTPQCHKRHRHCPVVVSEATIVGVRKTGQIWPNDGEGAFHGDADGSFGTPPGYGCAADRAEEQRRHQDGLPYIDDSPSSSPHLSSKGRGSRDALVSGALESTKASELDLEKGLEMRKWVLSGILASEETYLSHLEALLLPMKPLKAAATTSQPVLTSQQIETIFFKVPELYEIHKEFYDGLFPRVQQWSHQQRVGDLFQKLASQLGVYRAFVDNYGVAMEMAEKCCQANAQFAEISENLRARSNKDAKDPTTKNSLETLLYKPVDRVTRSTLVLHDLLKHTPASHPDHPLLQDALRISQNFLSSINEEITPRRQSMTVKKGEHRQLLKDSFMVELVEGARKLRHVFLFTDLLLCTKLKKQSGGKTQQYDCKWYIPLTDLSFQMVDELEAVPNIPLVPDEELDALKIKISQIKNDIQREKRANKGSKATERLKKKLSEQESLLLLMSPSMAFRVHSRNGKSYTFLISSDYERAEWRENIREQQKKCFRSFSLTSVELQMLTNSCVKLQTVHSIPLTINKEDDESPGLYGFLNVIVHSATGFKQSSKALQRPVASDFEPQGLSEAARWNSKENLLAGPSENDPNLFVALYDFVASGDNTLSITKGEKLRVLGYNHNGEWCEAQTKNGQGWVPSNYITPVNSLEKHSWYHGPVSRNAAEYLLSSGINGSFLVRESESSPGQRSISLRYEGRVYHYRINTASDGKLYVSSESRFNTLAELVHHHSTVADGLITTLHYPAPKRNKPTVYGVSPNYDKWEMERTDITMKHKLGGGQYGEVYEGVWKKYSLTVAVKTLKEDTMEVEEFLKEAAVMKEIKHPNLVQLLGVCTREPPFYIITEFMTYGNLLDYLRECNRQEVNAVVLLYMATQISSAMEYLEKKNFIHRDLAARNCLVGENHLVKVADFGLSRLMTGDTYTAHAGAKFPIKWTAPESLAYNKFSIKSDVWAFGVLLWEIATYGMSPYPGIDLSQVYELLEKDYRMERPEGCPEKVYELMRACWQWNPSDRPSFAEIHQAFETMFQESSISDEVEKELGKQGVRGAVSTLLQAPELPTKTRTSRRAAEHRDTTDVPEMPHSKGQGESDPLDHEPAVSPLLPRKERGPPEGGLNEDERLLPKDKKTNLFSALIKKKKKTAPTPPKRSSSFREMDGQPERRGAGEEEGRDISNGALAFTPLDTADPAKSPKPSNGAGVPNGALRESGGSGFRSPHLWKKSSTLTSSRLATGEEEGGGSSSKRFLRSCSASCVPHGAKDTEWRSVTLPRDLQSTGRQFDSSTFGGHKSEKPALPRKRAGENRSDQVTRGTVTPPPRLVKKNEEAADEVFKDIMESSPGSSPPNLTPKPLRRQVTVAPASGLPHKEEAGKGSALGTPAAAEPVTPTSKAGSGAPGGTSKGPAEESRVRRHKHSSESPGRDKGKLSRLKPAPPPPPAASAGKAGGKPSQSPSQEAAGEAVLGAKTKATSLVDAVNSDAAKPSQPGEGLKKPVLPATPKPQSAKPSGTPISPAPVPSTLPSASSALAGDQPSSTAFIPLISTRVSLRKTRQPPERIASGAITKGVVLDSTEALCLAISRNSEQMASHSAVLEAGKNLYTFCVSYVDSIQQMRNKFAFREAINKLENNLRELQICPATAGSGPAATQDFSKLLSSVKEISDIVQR

The IC50 is the concentration at which inhibition is half-maximal. Usually DC50 stands for the concentration at which degradation of the target reaches its halfway point. Consider `Cc1nc(Nc2ncc(C(=O)Nc3c(C)cccc3Cl)s2)cc(N2CCN(C(=O)CCOCCOCCOCCOCCNc3cccc4c3C(=O)N(C3CCC(=O)NC3=O)C4=O)CC2)n1` (centres unmarked) [SIAIS151068, N-(2-chloro-6-methylphenyl)-2-((6-(4-(1-((2-(2,6-dioxopiperidin-3-yl)-1,3-dioxoisoindolin-4-yl)amino)-3,6,9,12-tetraoxapentadecan-15-oyl)piperazin-1-yl)-2-methylpyrimidin-4-yl)amino)thiazole-5-carboxamide], for which the values for the IC50 in the assay with K562 (BCR-ABL+) cells, with U937 (BCR-ABL-) cells and in the assay with HEK293 (BCR-ABL-) cells were 40.4 nM, above 10000 nM and above 10000 nM, respectively. Besides, the DC50 on c-ABL protein was in the range of 10 to 100 nM; at BCR-ABL protein, 1 to 10 nM.
`Cc1nc(Nc2ncc(C(=O)Nc3c(C)cccc3Cl)s2)cc(N2CCN(C(=O)CC(=O)Nc3cccc4c3CN(C3CCC(=O)NC3=O)C4=O)CC2)n1` (centres unmarked) [SIAIS164108, N-(2-chloro-6-methylphenyl)-2-((6-(4-(3-((2-(2,6-dioxopiperidin-3-yl)-1-oxoisoindolin-4-yl)amino)-3-oxopropanoyl)piperazin-1-yl)-2-methylpyrimidin-4-yl)amino)thiazole-5-carboxamide]: the IC50 in the assay on K562 (BCR-ABL+) cells is 12.2 nM; in the assay on U937 (BCR-ABL-) cells, above 10000 nM; in the assay on HEK293 (BCR-ABL-) cells it was above 10000 nM. In addition, the DC50 at c-ABL protein and at BCR-ABL protein was 10 to 100 nM each time.
In the case of `Cc1nc(Nc2ncc(C(=O)Nc3c(C)cccc3Cl)s2)cc(N2CCN(C(=O)CCCNc3cccc4c3C(=O)N(C3CCC(=O)NC3=O)C4=O)CC2)n1` (centres unmarked) [SIAIS151070, N-(2-chloro-6-methylphenyl)-2-((6-(4-(4-((2-(2,6-dioxopiperidin-3-yl)-1,3-dioxoisoindolin-4-yl)amino)butanoyl)piperazin-1-yl)-2-methylpyrimidin-4-yl)amino)thiazole-5-carboxamide], the IC50 is 5.5 nM in the assay with K562 (BCR-ABL+) cells, above 10000 nM with U937 (BCR-ABL-) cells and above 10000 nM in the assay with HEK293 (BCR-ABL-) cells. Further, the DC50 at c-ABL protein and at BCR-ABL protein was 1 to 10 nM each time.
On to `Cc1nc(Nc2ncc(C(=O)Nc3c(C)cccc3Cl)s2)cc(N2CCN(C(=O)CCCCNc3cccc4c3C(=O)N(C3CCC(=O)NC3=O)C4=O)CC2)n1` (centres unmarked) [SIAIS151071, N-(2-chloro-6-methylphenyl)-2-((6-(4-(5-((2-(2,6-dioxopiperidin-3-yl)-1,3-dioxoisoindolin-4-yl)amino)pentanoyl)piperazin-1-yl)-2-methylpyrimidin-4-yl)amino)thiazole-5-carboxamide], for which the values for the IC50 in the assay with K562 (BCR-ABL+) cells, in the assay on U937 (BCR-ABL-) cells and in the assay with HEK293 (BCR-ABL-) cells were 0.55 nM, above 10000 nM and above 10000 nM, respectively. The DC50 at c-ABL protein is 1 to 10 nM; at BCR-ABL protein, below 1 nM.
In the case of `Cc1nc(Nc2ncc(C(=O)Nc3c(C)cccc3Cl)s2)cc(N2CCN(C(=O)CCCCNc3cccc4c3CN(C3CCC(=O)NC3=O)C4=O)CC2)n1` (centres unmarked) [SIAIS184052, N-(2-chloro-6-methylphenyl)-2-((6-(4-(5-((2-(2,6-dioxopiperidin-3-yl)-1-oxoisoindolin-4-yl)amino)pentanoyl)piperazin-1-yl)-2-methylpyrimidin-4-yl)amino)thiazole-5-carboxamide], the figures for the IC50 in the assay on K562 (BCR-ABL+) cells, in the assay on U937 (BCR-ABL-) cells and in the assay with HEK293 (BCR-ABL-) cells were 4.2 nM, above 10000 nM and above 10000 nM, respectively. Further, the values for the DC50 on c-ABL protein and on BCR-ABL protein were 10 to 100 nM and 1 to 10 nM, respectively.
On to `COc1cc(Nc2c(C#N)cnc3cc(OCCCN4CCN(C(=O)CCOCCOCCOCCOCCOCCNc5cccc6c5C(=O)N(C5CCC(=O)NC5=O)C6=O)CC4)c(OC)cc23)c(Cl)cc1Cl` (centres unmarked) [SIAIS151161, 4-((2,4-dichloro-5-methoxyphenyl)amino)-7-(3-(4-(1-((2-(2,6-dioxopiperidin-3-yl)-1,3-dioxoisoindolin-4-yl)amino)-3,6,9,12,15-pentaoxaoctadecan-18-oyl)piperazin-1-yl)propoxy)-6-methoxyquinoline-3-carbonitrile], for which the IC50 in the assay with K562 (BCR-ABL+) cells was 7260 nM; with U937 (BCR-ABL-) cells, above 10000 nM; with HEK293 (BCR-ABL-) cells it was above 10000 nM. The DC50 at c-ABL protein and at BCR-ABL protein was 100 to 1000 nM each time.
For the compound `Cc1nc(Nc2ncc(C(=O)Nc3c(C)cccc3Cl)s2)cc(N2CCN(C(=O)CCCCCCNc3cccc4c3C(=O)N(C3CCC(=O)NC3=O)C4=O)CC2)n1` (centres unmarked) [SIAIS151181, N-(2-chloro-6-methylphenyl)-2-((6-(4-(7-((2-(2,6-dioxopiperidin-3-yl)-1,3-dioxoisoindolin-4-yl)amino)heptanoyl)piperazin-1-yl)-2-methylpyrimidin-4-yl)amino)thiazole-5-carboxamide], the IC50 in the assay with K562 (BCR-ABL+) cells was 1.47 nM; with U937 (BCR-ABL-) cells it was above 10000 nM; in the assay on HEK293 (BCR-ABL-) cells, above 10000 nM. The half-maximal degradation concentration (DC50) at c-ABL protein and at BCR-ABL protein was 1 to 10 nM throughout.
On to `Cc1nc(Nc2ncc(C(=O)Nc3c(C)cccc3Cl)s2)cc(N2CCN(C(=O)CCCCCCCCC(=O)N[C@H](C(=O)N3C[C@H](O)C[C@H]3C(=O)NCc3ccc(-c4scnc4C)cc3)C(C)(C)C)CC2)n1` [SIAIS151180, N-(2-chloro-6-methylphenyl)-2-((6-(4-(10-(((S)-1-((2S,4R)-4-hydroxy-2-((4-(4-methylthiazol-5-yl)benzyl)carbamoyl)pyrrolidin-1-yl)-3,3-dimethyl-1-oxobutan-2-yl)amino)-10-oxodecanoyl)piperazin-1-yl)-2-methylpyrimidin-4-yl)amino)thiazole-5-carboxamide], for which the IC50 was 14.3 nM with K562 (BCR-ABL+) cells, above 10000 nM in the assay with U937 (BCR-ABL-) cells and above 10000 nM in the assay with HEK293 (BCR-ABL-) cells. In addition, the DC50 lay in the range of 10 to 100 nM on c-ABL protein and 1 to 10 nM at BCR-ABL protein.
For `Cc1nc(Nc2ncc(C(=O)Nc3c(C)cccc3Cl)s2)cc(N2CCN(CCCCCCOCCOCCOCCCCCC(=O)N[C@H](C(=O)N3C[C@H](O)C[C@H]3C(=O)NCc3ccc(-c4scnc4C)cc3)C(C)(C)C)CC2)n1` [Dasa-6-2-2-6-vhl, N-(2-chloro-6-methylphenyl)-2-((6-(4-((S)-3-((2S,4R)-4-hydroxy-2-((4-(4-methylthiazol-5-yl)benzyl)carbamoyl)pyrrolidine-1-carbonyl)-2,2-dimethyl-5-oxo-11,14,17-trioxa-4-azatricosan-23-yl)piperazin-1-yl)-2-methylpyrimidin-4-yl)amino)thiazole-5-carboxamide, reference compound], at BCR-ABL protein, the “degradation of BCR-ABL protein (in words)” value was “cannot degrade BCR-ABL protein”.
As to `COc1cc(Nc2c(C#N)cnc3cc(OCCCN4CCN(C(=O)CNc5cccc6c5C(=O)N(C5CCC(=O)NC5=O)C6=O)CC4)c(OC)cc23)c(Cl)cc1Cl` (centres unmarked) [SIAIS151164, 4-((2,4-dichloro-5-methoxyphenyl)amino)-7-(3-(4-((2-(2,6-dioxopiperidin-3-yl)-1,3-dioxoisoindolin-4-yl)glycyl)piperazin-1-yl)propoxy)-6-methoxyquinoline-3-carbonitrile], the DC50 on c-ABL protein and on BCR-ABL protein was 10 to 100 nM each time.
As to `Cc1ccc(NC(=O)c2ccc(CN3CCN(C(=O)CCOCCOCCOCCOCCC(=O)N[C@H](C(=O)N4C[C@H](O)C[C@H]4C(=O)NCc4ccc(-c5scnc5C)cc4)C(C)(C)C)CC3)cc2)cc1Nc1nccc(-c2cccnc2)n1` [SIAIS1197039, (2S,4R)-1-((S)-2-(tert-butyl)-19-(4-(4-((4-methyl-3-((4-(pyridin-3-yl)pyrimidin-2-yl)amino)phenyl)carbamoyl)benzyl)piperazin-1-yl)-4,19-dioxo-7,10,13,16-tetraoxa-3-azanonadecanoyl)-4-hydroxy-N-(4-(4-methylthiazol-5-yl)benzyl)pyrrolidine-2-carboxamide], the DC50 at c-ABL protein and on BCR-ABL protein was 1000 nM each time.
With `Cc1ccc(NC(=O)c2ccc(CN3CCN(C(=O)CCCCCCC(=O)N[C@H](C(=O)N4C[C@H](O)C[C@H]4C(=O)NCc4ccc(-c5scnc5C)cc4)C(C)(C)C)CC3)cc2)cc1Nc1nccc(-c2cccnc2)n1` [SIAIS074031, (2S,4R)-1-((S)-3,3-dimethyl-2-(8-(4-(4-((4-methyl-3-((4-(pyridin-3-yl)pyrimidin-2-yl)amino)phenyl)carbamoyl)benzyl)piperazin-1-yl)-8-oxooctanamido)butanoyl)-4-hydroxy-N-(4-(4-methylthiazol-5-yl)benzyl)pyrrolidine-2-carboxamide], the DC50 at c-ABL protein and at BCR-ABL protein was 100 to 1000 nM each time.
